Measured values reported in the supplement of paper PMC7023306.
± gives the uncertainty stated by the source.

Assay: TIMS collision cross section in N2 (TIMS CCS N2); higher = larger gas-phase ion size
Conditions: drift gas: N2 (99.4% N2, 0.6% O2), calibration: Stow et al. 2017 values for Agilent ESI-L Low Concentration Tune Mix, ionization: negative ESI
Protocol: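 Authentic plant natural product standards (10-50 ppm in 80% methanol) were analysed by UHPLC (BEH C18, 60 °C) coupled to a Bruker timsTOF Pro in negative ESI with N2 drift gas. TIMS collision cross sections were computed from mobility peak apices after calibration with Agilent Tune Mix using Stow et al. reference values. Values are the average of triplicate runs on different days, reported per annotated ion species (deprotonated ion, adducts, dimer, oxidized ion).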

Oc1cc(O)c2c(c1)OC(c1ccc(O)c(O)c1)C(O)C2 (single isomer, unassigned; (+)) [(+)-Catechin]
TIMS collision cross section in N2 (ion species: [M-H]-): 157.43 ± 0.095 Å²

O=C(/C=C/c1ccccc1)c1ccc(O)cc1O [2',4'-Dihydroxychalcone]
TIMS collision cross section in N2 (ion species: [M-H]-): 158.57 ± 0.14 Å²

COc1ccc(C(=O)/C=C/c2ccccc2)c(O)c1 [2'-Hydroxy-4'-methoxychalcone]
TIMS collision cross section in N2 (ion species: [M-H]-): 163.91 ± 0.055 Å²

COc1ccc(C=CC(=O)c2ccccc2O)cc1 [2'-Hydroxy-4-methoxychalcone]
TIMS collision cross section in N2 (ion species: [M-H]-): 164.38 ± 0.046 Å²

O=c1cc(-c2ccccc2O)oc2ccccc12 [2'-Hydroxyflavone]
TIMS collision cross section in N2 (ion species: [M-H]-): 149.95 ± 0.12 Å²

O=c1c(-c2ccc(O)c(O)c2)coc2cc(O)ccc12 [3',4',7-Trihydroxyisoflavone]
TIMS collision cross section in N2 (ion species: [2M-H]-): 217.7 ± 0.21 Å² | TIMS collision cross section in N2 (ion species: [M-3H]-): 155.92 ± 0.067 Å² | TIMS collision cross section in N2 (ion species: [M-H]-): 161.78 ± 0.026 Å²

COc1ccc(C2CC(=O)c3ccc(O)cc3O2)cc1OC (stereo not given) [3',4'-Dimethoxy-7-hydroxyflavanone]
TIMS collision cross section in N2 (ion species: [2M-H]-): 241.38 ± 0.035 Å² | TIMS collision cross section in N2 (ion species: [M-H]-): 180.72 ± 0.067 Å²

O=c1cc(-c2cccc(O)c2)oc2ccccc12 [3'-Hydroxyflavone]
TIMS collision cross section in N2 (ion species: [2M-H]-): 218.5 ± 0.57 Å² | TIMS collision cross section in N2 (ion species: [M-H]-): 154.89 ± 0.41 Å²

COc1ccc(-c2cc3ccc(O)cc3oc2=O)cc1OC [3(3',4'-Dimethoxyphenyl)-7-hydroxycoumarin]
TIMS collision cross section in N2 (ion species: [2M-H]-): 276.72 ± 0.47 Å² | TIMS collision cross section in N2 (ion species: [M-H]-): 172.02 ± 0.17 Å²

O=c1c(O)c(-c2cccc(O)c2O)oc2ccc(O)cc12 [3,6,2',3'-Tetrahydroxyflavone]
TIMS collision cross section in N2 (ion species: [M-3H]-): 161.13 ± 0.17 Å² | TIMS collision cross section in N2 (ion species: [M-H]-): 161.7 ± 0.14 Å²

O=c1c(O)c(-c2ccc(O)cc2O)oc2ccc(O)cc12 [3,6,2',4'-Tetrahydroxyflavone]
TIMS collision cross section in N2 (ion species: [M-H+Na+HCO2H]-): 183.33 ± 0.05 Å² | TIMS collision cross section in N2 (ion species: [M-H]-): 161.99 ± 0.064 Å²

O=c1c(O)c(-c2cc(O)c(O)c(O)c2)oc2cc(O)ccc12 [3,7,3',4',5'-Pentrahydroxyflavone (robinetin)]
TIMS collision cross section in N2 (ion species: [M-3H]-): 160.55 ± 0.095 Å² | TIMS collision cross section in N2 (ion species: [M-H]-): 164.55 ± 0.2 Å²

O=C1c2ccc(O)cc2O[C@H](c2ccc(O)c(O)c2)[C@H]1O [3,7,3',4'-Tetrahydroxyflavanone (fustin)]
TIMS collision cross section in N2 (ion species: [M-3H]-): 160.22 ± 0.11 Å² | TIMS collision cross section in N2 (ion species: [M-H]-): 154.57 ± 0.12 Å²

CC1(C)CCC2(C(=O)OC3OC(CO)C(O)C(O)C3O)CCC3(C)C(=CCC4C5(C)CC(O)C(OC6OC(CO)C(O)C(O)C6O)C(C)(C(=O)O)C5CCC43C)C2C1 (stereo not given) [3-Glc, 28-Glc medicagenic acid]
TIMS collision cross section in N2 (ion species: [M-H]-): 300.86 ± 0.71 Å²

O=c1c(O)c(-c2ccccc2)oc2ccccc12 [3-Hydroxyflavone]
TIMS collision cross section in N2 (ion species: [M-H+Na+HCO2H]-): 172.34 ± 0.36 Å² | TIMS collision cross section in N2 (ion species: [M-H]-): 152.04 ± 0.28 Å²

O=c1cc(-c2ccc(O)cc2)oc2ccccc12 [4'-Hydroxyflavone]
TIMS collision cross section in N2 (ion species: [M-H]-): 151.91 ± 0.13 Å²

COc1cc(OC)c(C(=O)C=Cc2ccc(O)cc2)c(OC)c1 [4-Hydroxy-2',4',6'-trimethoxychalcone (flavokawain A)]
TIMS collision cross section in N2 (ion species: [M-H]-): 182.42 ± 0.24 Å²

O=c1cc(-c2ccc(O)c(O)c2)oc2cccc(O)c12 [5,3',4'-Trihydroxyflavone]
TIMS collision cross section in N2 (ion species: [2M-H]-): 244.46 ± 0.1 Å² | TIMS collision cross section in N2 (ion species: [M-H]-): 156.4 ± 0.18 Å²

COc1ccc(C2CC(=O)c3c(ccc(O)c3O)O2)cc1OC (stereo not given) [5,6-dihydroxy-3',4'-dimethoxy-flavanone]
TIMS collision cross section in N2 (ion species: [M-3H]-): 179.11 ± 0.078 Å² | TIMS collision cross section in N2 (ion species: [M-H+Na+HCO2H]-): 192.04 ± 0.13 Å² | TIMS collision cross section in N2 (ion species: [M-H]-): 176.56 ± 0.17 Å²

COc1cc(-c2cc(=O)c3c(O)c(OC)c(O)cc3o2)cc(OC)c1O [5,7,4'-trihydroxy-6,3',5'-trimethoxyflavone]
TIMS collision cross section in N2 (ion species: [M-H+Na+HCO2H]-): 202.32 ± 0.32 Å² | TIMS collision cross section in N2 (ion species: [M-H]-): 183.59 ± 0.17 Å²

COc1cc(OC)c2c(c1)OC(c1ccc(O)cc1)CC2=O (stereo not given) [5,7-DIMETHOXY-4'-HYDROXYFLAVANONE]
TIMS collision cross section in N2 (ion species: [M-H]-): 174.1 ± 0.31 Å²

COc1ccccc1-c1cc(=O)c2c(O)cc(O)cc2o1 [5,7-Dihydroxy-2'-methoxyflavone]
TIMS collision cross section in N2 (ion species: [2M-H]-): 238.49 ± 0.23 Å² | TIMS collision cross section in N2 (ion species: [M-H]-): 167.34 ± 0.07 Å²

COc1ccc(-c2cc(=O)c3c(O)cc(O)cc3o2)cc1 [5,7-Dihydroxy-4'-methoxyflavone]
TIMS collision cross section in N2 (ion species: [M-3H]-): 165.19 ± 0.13 Å² | TIMS collision cross section in N2 (ion species: [M-H]-): 170.87 ± 0.1 Å²

COc1ccc(C2CC(=O)c3c(O)cc(O)cc3O2)cc1OC (stereo not given) [5,7-dihydroxy-3',4'-dimethoxy-flavanone]
TIMS collision cross section in N2 (ion species: [2M-H]-): 238.03 ± 0.5 Å² | TIMS collision cross section in N2 (ion species: [M-H+Na+HCO2H]-): 195.74 ± 0.19 Å² | TIMS collision cross section in N2 (ion species: [M-H]-): 175.95 ± 0.1 Å²

O=C1CC(c2ccccc2)Oc2c(O)ccc(O)c21 (stereo not given) [5,8-Dihydroxyflavanone]
TIMS collision cross section in N2 (ion species: [M-H]-): 158.38 ± 0.01 Å²

COc1ccc(C2CC(=O)c3c(O)cccc3O2)cc1OC (stereo not given) [5-Hydroxy-3',4'-dimethoxyflavanone]
TIMS collision cross section in N2 (ion species: [M-H+Na+HCO2H]-): 187.65 ± 0.61 Å² | TIMS collision cross section in N2 (ion species: [M-H]-): 174.21 ± 0.21 Å²

COc1cc(/C=C/C(=O)O)cc(O)c1O [5-Hydroxyferulic acid]
TIMS collision cross section in N2 (ion species: [M-H]-): 141.26 ± 0.044 Å²

O=c1cc(-c2ccccc2)oc2cccc(O)c12 [5-Hydroxyflavone]
TIMS collision cross section in N2 (ion species: [M-H+Na+HCO2H]-): 173.98 ± 0.31 Å² | TIMS collision cross section in N2 (ion species: [M-H]-): 156 ± 0.14 Å²

O=C1CC(c2ccc(O)c(O)c2)Oc2cc(O)c(O)cc21 (stereo not given) [6,7,3',4'-Tetrahydroxyflavanone]
TIMS collision cross section in N2 (ion species: [M-3H]-): 161.92 ± 0.36 Å² | TIMS collision cross section in N2 (ion species: [M-H]-): 167.53 ± 0.27 Å²

O=c1c(-c2ccc(O)cc2)coc2cc(O)c(O)cc12 [6,7,4'-Trihydroxyisoflavone]
TIMS collision cross section in N2 (ion species: [2M-H]-): 249.43 ± 0.37 Å² | TIMS collision cross section in N2 (ion species: [M-H]-): 159.49 ± 0.16 Å²

CC(C)=CCc1c(O)c(CC=C(C)C)c2c(c1O)C(=O)C[C@@H](c1ccc(O)cc1)O2 [6,8-diprenylnaringenin]
TIMS collision cross section in N2 (ion species: [M-H]-): 206.73 ± 0.66 Å²

O=C1CC(c2ccccc2)Oc2ccc(O)cc21 (stereo not given) [6-Hydroxyflavanone]
TIMS collision cross section in N2 (ion species: [2M-H]-): 244.54 ± 0.11 Å² | TIMS collision cross section in N2 (ion species: [M-H]-): 156.92 ± 0.15 Å²

O=c1cc(-c2ccccc2)oc2ccc(O)cc12 [6-Hydroxyflavone]
TIMS collision cross section in N2 (ion species: [2M-H]-): 239.79 ± 0.056 Å² | TIMS collision cross section in N2 (ion species: [M-H]-): 155.92 ± 0.15 Å²

CC(C)=CCC/C(C)=C/Cc1c(O)cc2c(c1O)C(=O)C[C@@H](c1ccc(O)cc1)O2 [6-geranylnaringenin]
TIMS collision cross section in N2 (ion species: [2M-H]-): 275.87 ± 0.17 Å² | TIMS collision cross section in N2 (ion species: [M-H]-): 204.76 ± 0.16 Å²

CC(C)=CCc1c(O)cc2c(c1O)C(=O)C[C@@H](c1ccc(O)cc1)O2 [6-prenylnaringenin]
TIMS collision cross section in N2 (ion species: [2M-H]-): 235.03 ± 0.42 Å² | TIMS collision cross section in N2 (ion species: [M-H]-): 183.64 ± 0.61 Å²

O=c1cc(-c2cc(O)c(O)c(O)c2)oc2cc(O)ccc12 [7,3',4',5'-Tetrahydroxyflavone]
TIMS collision cross section in N2 (ion species: [M-H]-): 161.92 ± 0.042 Å²

O=c1c(-c2ccc(O)c(O)c2)coc2cc(O)ccc12 [7,3',4'-TRIHYDROXYISOFLAVONE]
TIMS collision cross section in N2 (ion species: [M-3H]-): 156.67 ± 0.24 Å² | TIMS collision cross section in N2 (ion species: [M-H]-): 162.61 ± 0.21 Å²

COc1ccc(-c2oc3cc(OC)ccc3c(=O)c2O)cc1 [7,4'-Dimethoxy-3-hydroxyflavone]
TIMS collision cross section in N2 (ion species: [M-H+Na+HCO2H]-): 193.67 ± 0.15 Å²

COc1ccc(C2CC(=O)c3c(O)cc(OC)cc3O2)cc1 (stereo not given) [7,4'-Dimethoxy-5-hydroxyflavanone]
TIMS collision cross section in N2 (ion species: [M-H+Na+HCO2H]-): 194.46 ± 0.47 Å² | TIMS collision cross section in N2 (ion species: [M-H]-): 175.55 ± 0.29 Å²

O=c1cc(-c2ccc(O)cc2)oc2cc(O)ccc12 [7,4'-dihydroxyflavone]
TIMS collision cross section in N2 (ion species: [2M-H]-): 221.31 ± 0.038 Å² | TIMS collision cross section in N2 (ion species: [M-H]-): 157.01 ± 0.16 Å²

COc1cccc(-c2cc(=O)c3ccc(O)cc3o2)c1 [7-Hydroxy-3'-methoxyflavone]
TIMS collision cross section in N2 (ion species: [2M-H]-): 229.62 ± 0.17 Å² | TIMS collision cross section in N2 (ion species: [M-H]-): 165.22 ± 0.11 Å²

COc1ccc(-c2cc(=O)c3ccc(O)cc3o2)cc1 [7-Hydroxy-4'-methoxyflavone]
TIMS collision cross section in N2 (ion species: [2M-H]-): 231.78 ± 0.34 Å² | TIMS collision cross section in N2 (ion species: [M-H]-): 165.03 ± 0.085 Å²

O=c1cc(-c2ccccc2)oc2cc(O)ccc12 [7-Hydroxyflavone]
TIMS collision cross section in N2 (ion species: [2M-H]-): 228.17 ± 0.39 Å² | TIMS collision cross section in N2 (ion species: [M-H]-): 153.67 ± 0.056 Å²
